Biological target: T1, hTNNI3K WT (Homo sapiens, UniProt Q59H18)
T1 construct: expressed in transfected cells
T1 sequence (Q59H18 1-835): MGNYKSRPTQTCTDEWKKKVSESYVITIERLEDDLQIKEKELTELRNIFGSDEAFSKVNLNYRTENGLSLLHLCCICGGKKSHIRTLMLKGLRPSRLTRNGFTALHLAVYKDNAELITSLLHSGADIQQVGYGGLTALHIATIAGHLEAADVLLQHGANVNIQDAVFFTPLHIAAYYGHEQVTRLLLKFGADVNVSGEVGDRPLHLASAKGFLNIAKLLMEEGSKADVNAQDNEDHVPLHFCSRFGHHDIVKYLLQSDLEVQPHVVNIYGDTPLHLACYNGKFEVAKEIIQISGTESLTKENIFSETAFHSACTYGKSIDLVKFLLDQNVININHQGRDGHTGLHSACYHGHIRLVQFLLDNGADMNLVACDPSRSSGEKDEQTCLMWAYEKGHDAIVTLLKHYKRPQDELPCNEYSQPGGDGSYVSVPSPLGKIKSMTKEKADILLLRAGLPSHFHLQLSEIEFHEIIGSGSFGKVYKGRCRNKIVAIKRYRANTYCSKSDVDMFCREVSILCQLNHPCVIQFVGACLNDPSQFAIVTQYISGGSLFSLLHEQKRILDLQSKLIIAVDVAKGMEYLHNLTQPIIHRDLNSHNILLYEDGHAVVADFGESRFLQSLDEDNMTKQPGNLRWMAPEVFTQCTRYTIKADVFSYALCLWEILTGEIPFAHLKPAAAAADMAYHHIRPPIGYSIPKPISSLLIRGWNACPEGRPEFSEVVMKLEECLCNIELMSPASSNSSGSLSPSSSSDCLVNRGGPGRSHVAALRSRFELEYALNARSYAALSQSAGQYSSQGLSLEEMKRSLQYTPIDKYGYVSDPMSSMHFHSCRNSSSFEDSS
Assay: TNNI3K degradation in HEK293 cells overexpressing hTNNI3K WT (western blot)
Type: cell-based
Details: FIGS. 4A-4B; for TNNI3K degradation (western blot): concentration dependent; for concentration from which no residual TNNI3K was detected: western blot, 18 hours
Experimental: HEK293-hTNNI3K stable cells were seeded at 400,000 cells/well in 6-well plate and incubated at 37° C. and 5% CO2 overnight in DMEM containing 10% FBS. The following day growth media was replaced with low-serum media containing DMEM with 0.5% FBS and incubated at 37° C. and 5% CO2 overnight. Following overnight serum starvation, cells were treated with compounds at 20 μM starting dose with 1:5 serial dilution prepared in low-serum media. Media was removed and compounds were added to 6-well plate at 2 mL per well and cells were incubated at 37° C. and 5% CO2 for 18 hours. Following compound treatment cells were washed with cold DPBS containing protease/phosphatase inhibitor cocktail (Thermo #1861284) and lysed in RIPA buffer on ice (Pierce #89900, also containing protease/phosphatase inhibitors). Following sonication and frequent vortexing at 4° C. for approximately 1 hour, samples were centrifuged at 14,000 rpm for 20 minutes. Supernatants were collected for protein samples. Protein concentration was determined using BioRad DC Protein Assay (FIGS. 3A and 3C).
Samples for western blotting were prepared in loading buffer (Thermo #NP0007) and 8 μg protein was loaded per lane in 4-12% Novex Bis-Tris gel and run at 60V for approximately 1 hour. Gels were transferred to PVDF membrane using semi-dry transfer device iBlot 2 from Thermo Scientific. Blots were blocked using Superblock T20 blocking solution for 2 hours at room temperature (Thermo #37536). Blots were then incubated with primary antibodies overnight with gentle shaking at 4° C. (TNNI3K #ab136954 and Beta-Actin CST #3700) at 1:1000 and 1:2000 dilution respectively. Following overnight primary antibody incubation, blots were washed 3 times on rocker for 5 minutes each with 1×TBS-T at room temperature. Blots were then incubated with secondary HRP-anti-rabbit at 1:2000 dilution (CST #7074) for 2 hours at room temperature. Blots were then washed with 1×TBS-T 3 times on rocker for 5 minutes each. Protein bands were detected using BioRad Chemi-Doc station and Supersignal West Dura substrate (Thermo #34075). Protein bands were quantified using ImageJ software. TNNI3K bands were normalized to beta-actin loading control. Data are graphed by fold change of cpd over DMSO control.
Here the amount of total normalized TNNI3K expression levels were monitored upon compound treatment in a dose dependent manner. IC50 refers to the concentration at which 50% reduction in protein expression was observed.

SMILES	TNNI3K degradation (western blot)	concentration from which no residual TNNI3K was detected [nM]
CNS(=O)(=O)c1ccc(N(C)C)c(Nc2ncnc3cc(OCCCN4CCN(C(=O)N5CCN(CCC#Cc6ccc(N7CCC(=O)NC7=O)cc6)CC5)CC4)ccc23)c1 [Compound 21, 4-(dimethylamino)-3-((7-(3-(4-(4-(4-(4-(2,4-dioxotetrahydropyrimidin-1(2H)-yl)phenyl)but-3-yn-1-yl)piperazine-1-carbonyl)piperazin-1-yl)propoxy)quinazolin-4-yl)amino)-N-methylbenzenesulfonamide]	full degradation	6
CNS(=O)(=O)c1ccc(N(C)C)c(Nc2ncnc3cc(OCCCN4CCC5(CC4)CN(CC#Cc4ccc(N6CCC(=O)NC6=O)cc4)CCO5)ccc23)c1 [Compound 22, 4-(dimethylamino)-3-((7-(3-(4-(3-(4-(2,4-dioxotetrahydropyrimidin-1(2H)-yl)phenyl)prop-2-yn-1-yl)-1-oxa-4,9-diazaspiro[5.5]undecan-9-yl)propoxy)quinazolin-4-yl)amino)-N-methylbenzenesulfonamide]	full degradation	32

— patent US20220387602A1, “BIFUNCTIONAL DEGRADERS AND THEIR METHODS OF USE” (NOVARTIS AG, priority 2019, published 2022)
